Structures can show the parent of a compound that is named as a salt. Where two headings read alike, the source gives them in different places.
Legend:
[1] = Skin and fat penetration assay, cubes of human fat with skin (Example 8); type: in vitro ADME
Protocol: Cubes of human fat (5×5×5 cm) with skin attached from obese female subjects that underwent esthetic surgery was dissected at 4° C. Cubes were transferred to containers so the skin would overlay the rim of the container. 0.25 ml of hydrogels comprising 2.75 mg/ml free octopamine, 5 mg/ml octopamine decanoate or 3.98 mg/ml octopamine pentanoate were applied once and left to penetrate for 20 hrs. Cubes were subsequently frozen at −80° C.
Upon defrosting, skin was carefully removed taking care not to contaminate the underlying fat. The fat was dissected to yield a column of 1×1 cm of fat that was directly under the site of application. The column was sliced to yield 0.5 cm thick slices covering 0-2cm fat depth under the site of application. Tissue was sonicated in 5 ml PBS (5 mM glucose), samples were spun down (13000 rpm for 30 min at 4° C.). Clear supernatant was removed with an injection needle and syringe and frozen until analysis. Analysis of octopamine was performed as described in Example 7.

[2] = Plasma levels of octopamine in human volunteers (Example 10); type: in vivo
Protocol: After thorough washing of hands, blood was sampled using […]. Blood (40 microliter) was sampled using a capillary that protruded the cap of the vial and spun down into 300 microliter vials containing 10 microliter of heparin 20 IE/ml. Plasma was pipetted off and transferred to 300 microliter vials and stored at -20° C. until analysis. Octopamine was analyzed as described in Example 7. […] FIG. 17b), and of octopamine pentanoate (3.98 mg/ml, 2.5 ml, once daily); FIG. 17c). Experiments are an average of one or two experiments (n=1-2).

human fat suspension [3] = experiment: In vitro assay of glycerol production in human fat (Example 3); type: cell-based; conditions: 2 hours at 37 degrees Celsius
Protocol: Human fat tissue was pottered using a teflon potter in 10 ml PBS with 6 mM Glucose (2.4 gram fat tissue per 10 ml). The suspension was transferred to a 50 ml beaker and was gently stirred at 37 degrees Celsius to maintain the homogeneous nature. 0.3 ml suspension was transferred to 2 ml reaction vials, spiked with octopamine (end concentration 1 microM) and octopamine decanoate (end concentration 10 microM and PBS/glucose were added until 2 ml end volume. Vials were incubated at 37 degrees Celsius for 2 hours.
Samples were spun off at 4000 rpm for 2 min and 10 microliter samples were taken after removal of floating fat with a tissue.
(§1) Samples were analyzed using an enzymatic kit (Sigma Aldrich) and fluorescence intensity was measured using direct flow injection (Vici valve in combination with Shimadzu 10 ADvp HPLC pump at 0.15 ml/min, thermo 15*2.1 C18 column prior to valve and using ultrapure water as mobile phase) of 20 microliter into a HPLC fluorescence detector (Shimadzu RF 10Ax1). Calibration was performed by preparation of calibration samples 2-1000 microM.

human volunteers [4] = experiment: Application on human volunteers: waistline and skinfold (Example 10); type: in vivo; conditions: for Decrease of waistline: same molar concentration
Protocol: For abdominal/hip experiments 2 male volunteers […] (BMI 25.5 and 28 resp.) monitored belly circumference, and skinfold at belly and hip on a daily basis (8 am mornings). Blood pressure and body weight was monitored daily. […] Hydrogel was applied daily or twice daily as indicated using a 5 ml syringe to measure volume. For abdominal experiments, the indicated volume of hydrogel was applied on the belly around the belly button in a radius of 10 cm. The same volume was applied for hip areas. For leg experiments, 2.5 ml was applied on each leg. Skinfold was assessed by measuring thickness of skin at hips and belly 4 cm from belly button using a skinfold measuring device ([…]-120). […] Experiments are the average of two experiments (n=2). […] Experiments are an average of 2 or 3 runs (n=2-3).

[5] = Skin penetration chamber, human skin (Example 7); type: in vitro ADME; conditions: 0.25 ml hydrogel 2.75 mg/ml, human skin 6.25 cm^2, 2 hours
Protocol: The chamber was thermostated at 37° C. Samples were drawn from the PBS pottered tissue with a 1 ml syringe and analyzed using LC-mass spectrometry. Given the full conversion, this assay evaluates the total penetration of octopamine prodrug through skin based on equal amounts of octopamine, and compares this to the penetration of an equal amount of octopamine itself. Samples were analyzed using HPLC masspectrometry. A Shimadzu HPLC (LC20AD pump and […] injector) was used in conjunction with a sciex API 4000 Masspectrometer. The HPLC column was a Phenomenex, Synergi Max (BOL-P-RP2.5-036), 3.0×100mm, […], thermostated at 35° C. The mobile phase consisted of Eluent A: 0.1% formic acid (“FA”) in ultrapure water (“UP”) and Eluent B: 70% acetonitrile (“ACN”) +0.1% FA at a total flow of 0.3 ml/min. […] UP/ACN/FA =50/50/0.1. […] Gradients were maintained at 100% B for 0.5 minute. […] Samples were centrifugated for 5 mins at 13000 rpm and 14 μL 0.1% FA in UP was added to 6 μL supernatant and vortexed for 10 sec. The autoinjector was programmed to add 20 μl 0.5 mg/ml […] reagent (online) and inject 35 μl. The […] reagent was prepared by dissolving 5 mg […] in 4.5 ml UP, 5 ml 0.25 M NaHCO3, 0.5 ml methanol (“MeOH”) and 20 microliter 2-mercapto-ethanol.

[6] = Stability / hydrolysis in PBS at 37 degrees (Example 6); type: physicochemical
Protocol: Samples were analyzed using HPLC UV.

human fat suspension [7] = experiment: In vitro glycerol production assay, 250 mg/ml human fat suspension (Example 9); type: cell-based; conditions: for Glycerol production (FIG. 20): 250 mg/ml human fat suspension, 4 hrs at 37 degrees Celsius; for Glycerol content: 4 hrs at 37° C.
Protocol: Test compounds were added at a concentration as indicated and vials were incubated for 4 hrs at 37° C. Vials were mixed every hour. Glycerol production in 4 hrs was calculated by analyzing glycerol content of the control (a suspension which was not incubated but instead immediately frozen) vs control samples that were incubated for 4 hours. The produced glycerol quantity was set as 100%. The glycerol content of experimental samples was expressed as % of the control.
Experimental samples were frozen after incubation. The fat pellet was removed and upon defrosting, samples were spun down (13000 rpm for 15 min at 4° C.), and clear supernatant was pipetted off and frozen until analysis.
Glycerol was analyzed using an enzymatic kit (Glycerol Assay Kit, Sigma Aldrich). Briefly, in a 96 well plate (Corning), 100 microliter glycerol assay reaction mix was added to 10 microliter samples of supernatant and left to incubate for 20 minutes after shaking for 15 seconds. Absorbance was read by a platereader (Thermo Multiskan FC) at 570 nm. A glycerol calibration line (0.015 microM-1000 microM) was used for quantification.

human volunteers [8] = experiment: Blood pressure, heart rate and side effects in human volunteers (Example 10); conditions: humans
Male wistar rats = experiment: In vivo effect of hydrogel treatment on waist, weight and plasma glycerol of rats (Example 5); design: species or system rat
Protocol: Male wistar rats (approx. 500 g) were weight daily and waistline was measured. Animals were shaven once weekly at least 12 hours before next treatment to ensure wound healing.
Animals were first treated for 1 month with carbomer hydrogel not containing prodrugs (twice daily abdominal application 3 by 3 cm) , after which animals were treated with 0.5 ml carbomer hydrogel containing 5 mg/ml octopamine decanoate (application concentration 0.277 mg/cm^2). Tail vena blood draws (100 microliter plasma, 5 microliter heparine 500 IE per 100 microliter blood) were taken on the day −8, 21, 36 (start of compound treatment), 51 and 58. Blood was spun off (10 min 14 KRPM) and plasma was stored at −80.
as §1, with “Blood samples were” for “Samples were”, “analyzed for glycerol” for “analyzed”, “with shimadzu” for “with Shimadzu”, “ADvp hplc” for “ADvp HPLC”, “RF 10Axl).” for “RF 10Ax1).”

[9] = In vitro ester hydrolysis assay, control in PBS without tissue (spontaneous hydrolysis); type: physicochemical; conditions: 30 degrees
Protocol: (§2) Octopamine released was measured using a 50 ml beaker thermostated at 30 degrees. 30 ml PBS (stirred) was pumped at 1 ml/min (Gilson minipulse 3) through a UV detector (SPD-10Avp Shimadzu UV/VIS) set at 280 nm and 2.56 AUFS. The outlet was recirculated back to the beaker. UV signal was recorder on a flatbed recorder (Kipp), set at 1 mm/min and 1 mV gain.
(§3) Octopamine and octopamine decanoate solutions (1 mM) were made in ultrapure water adding 1 microliter/ml of 1.8% hydrochloride acid. Octopamine decanoate was sonicated for 30 min at 30 degrees.
(§4) Upon stabilization of the UV detector on PBS, 1 ml of tissue suspension was added to the PBS. Upon stabilization of the UV signal, 5 ml of 1 mM of octopamine decanoate was added. Control experiments were performed without addition of tissue suspension in order to monitor spontaneous hydrolysis of decanoate ester in PBS.

[10] = female, human, 15 min, 10 microM
Protocol: Human belly adipose tissue was obtained from obese female subjects that underwent esthetic surgery. Tissue was pottered (Potter RW 19 Nr 29795 of Janke & Kunkel KG) in PBS solution (Irvine Scientific) with 5 mM D(+)-glucose monohydrate at 530 rpm using a Teflon potter tip.
Tissue suspension (1, 7.5, 25 or 240 mg fat/ml PBS, or plasma) was stirred and 1.98 ml aliquots were transferred to polypropylene 2 ml screwcap vials (Sarstedt). […] When inhibition of lipase was studied, propranolol or orlistat were added 5 minutes before addition of the prodrug esters (FIG. 10).
15 minutes after addition of the prodrug, lipolysis was stopped by adding 20 microliter of 1.8% HCl. Samples were spun down (13000 rpm for 3 min at 4° C.) and supernatants were stored at −18° C. for analysis.
Samples were analyzed using HPLC UV. A Gilson 234 auto-injector and Shimadzu hplc pump (10 AdVP) was used in conjunction with a shimadzu UV (10AVp) set at 270 nm. Samples were separated using a reversed phase HPLC column (Thermo BDS Hypersil C18 150 mm×2.1 mm, 3 micrometer). The mobile phase consisted of 1.6 g KH2PO4, 110 mg sodium 1-heptane sulfonate, 1 1 ultrapure water, 15 mL methanol and 1 ml acetic acid at a flowrate of 0.175 ml/min.

[11] = In vitro ester hydrolysis assay in PBS/human fat suspension; type: in vitro ADME; conditions: PBS/human fat tissue at concentrations three times higher than rat tissue, in 110 min
Protocol: Abdominal fat tissue was harvested from male wistar rats (400 g, Harlan Zeist) and stored at −80° C. until use. Human fat tissue was obtained from esthetic surgery and stored at −80° C. until use. Tissue was thuraxed (80 mg/ml for rat tissue and 240 mg/ml for human tissue) for 1 min in Phosphate buffered saline (PBS (Irvine Scientific).
as §2, §3, §4

lipase = conditions: inhibitor added 5 minutes before, relative to control; for Effect on hydrolysis of octopamine decanoate in fat suspension: octopamine decanoate 10 microM; for Effect on hydrolysis of synephrine decanoate in fat suspension: synephrine decanoate 10 microM
[12] = humans n=2, hydrogel on belly and hips, 2.5 ml once daily or 5 ml twice daily, after 16 days
[13] = hydrogel 5 mg/ml, 5 ml twice daily on belly and hips

## p-Octopamine [reference compound]
[1]; 0.25 ml hydrogel applied once, 20 hrs
  Penetration through skin and fat tissue: penetrate through both skin and fat tissue
[2]; humans, 2.5 ml or 5 ml hydrogel
  Plasma levels of free octopamine upon administration of hydrogel: acceptable systemic concentrations
Human fat suspension [3]; end concentration 1 microM, P=0.10
  Glycerol production (levels): increased
Human volunteers [4]; [12]
  Decrease of waistline: without effect
Human volunteers [4]; single individual, hydrogel on belly and hips, after 21 days
  Decrease of waistline: without effect
[5]
  Penetration of octopamine through skin: minor penetration
[6]
  Stability in PBS: stable

## CC(C)(C)NCC(O)COc1cccc2[nH]c(=O)[nH]c12 (stereo not drawn) [CGP12177]
Human fat suspension [7]
  Glycerol production (FIG. 20): increased

## CCCCCCCCCC(=O)Oc1ccc(C(O)CN)cc1 (stereo not drawn) [octopamine decanoate, 4-(2-amino-1-hydroxyethyl)phenyl decanoate]
Human volunteers [8]; [13]
  Blood pressure (systole and diastole): remained normal
  Heart rate: remained normal
Human volunteers [8]; topical hydrogel treatment regimes
  Side effects: No side effects were reported
[1]
  Penetration through skin and fat tissue: penetrate through both skin and fat tissue
[2]; human, in vivo
  Plasma levels of free octopamine upon administration of hydrogel: did not result in unacceptable plasma levels
Human fat suspension [3]; end concentration 10 microM, P=0.047
  Glycerol production (levels): reached significance
Male wistar rats; 0.5 ml hydrogel 5 mg/ml twice daily abdominal
  Animal weights: remained inclining according to their growth curve
Male wistar rats; 0.5 ml hydrogel 5 mg/ml twice daily abdominal, after 3 weeks of treatment
  Reduction of waistline: about 10%
Male wistar rats; after 15 days of treatment, P=0.101
  Plasma glycerol levels: increased
Male wistar rats; after 22 days of treatment, P=0.024
  Plasma glycerol levels: reaching significance
[9]
  Spontaneous hydrolysis into octopamine, rate: 10 % per 110 min
[10]
  Base level of hydrolysis in fat suspension: 40-45%
Human volunteers [4]; [12]
  Decrease of waistline: about 4%
Human volunteers [4]; hydrogel 5 mg/ml, 5 ml twice daily, in 20 days
  Reduction of skinfold (belly and hip): 10-20%
[11]
  Conversion by hydrolysis: over 40%
[6]; PBS at 37 degrees
  Hydrolysis in PBS compared with plasma or fat tissue: much lower rate

## CNCC(O)c1ccc(O)cc1 (racemic) [synephrine, p-synephrine, reference compound]
[6]; PBS at 37 degrees
  Stability in PBS: stable

## CCCCCCCCCCC[C@@H](C[C@@H]1OC(=O)[C@H]1CCCCCC)OC(=O)[C@H](CC(C)C)NC=O [Orlistat]
lipase
  Effect on hydrolysis of octopamine decanoate in fat suspension: further suppresses
  Effect on hydrolysis of synephrine decanoate in fat suspension: further suppresses

## Cc1cccc(C)c1N=C1NCCCS1 [xylazine, Xylazine]
Human fat suspension [7]
  Glycerol production (FIG. 20): reduced

## CC(C)NC[C@H](O)COc1cccc2ccccc12 [propranolol, (S)-(-)-Propranolol HCl]
Human fat suspension [7]; concentrations above 1000 nM
  Glycerol content: decreased
Human fat suspension [7]; concentrations from 0.1 to at least 1000 nM
  Glycerol content: more or less constant
lipase
  Effect on hydrolysis of octopamine decanoate in fat suspension: decreases
  Effect on hydrolysis of synephrine decanoate in fat suspension: decreases

## CCCCCCCCCC(=O)Oc1ccc(C(O)CNC)cc1 (stereo not drawn) [synephrine decanoate, 4-(1-hydroxy-2-(methylamino)ethyl)phenyl decanoate]
[10]
  Base level of hydrolysis in fat suspension: 40-45%
[6]; PBS at 37 degrees
  Hydrolysis in PBS compared with plasma or fat tissue: much lower rate

## C[C@H](Cc1ccc2c(c1)OC(C(=O)[O-])(C(=O)[O-])O2)NC[C@H](O)c1cccc(Cl)c1.[Na+].[Na+] [CL 316243]
Human fat suspension [7]
  Glycerol production (FIG. 20): increased

## Cn1c(=O)c2c(ncn2C)n(C)c1=O [caffeine]
Human fat suspension [7]
  Glycerol production (FIG. 20): increased

## CCc1ccccc1OC[C@@H](O)CN[C@H]1CCCc2ccccc21 [SR 59230]
Human fat suspension [7]
  Glycerol production (FIG. 20): reduced

## CCOC(=O)COc1ccc2c(c1)C[C@@H](NC[C@H](O)c1cccc(Cl)c1)CC2 [SR 58611A, Amibegron]
Human fat suspension [7]
  Glycerol production (FIG. 20): increased

## COC(=O)[C@@H]1[C@H]2C[C@H]3c4[nH]c5ccccc5c4CCN3C[C@@H]2CC[C@@H]1O [yohimbine, Yohimbine]
Human fat suspension [7]
  Glycerol production (FIG. 20): increased
